Measured values as given in patent US12565501B2, “Muscarinic acetylcholine M1 receptor antagonists” (Contineum Therapeutics, Inc., priority 2019, dated 2026).

Each compound was assayed against T1, human M1 receptor (Homo sapiens, UniProt P11229) (assay: In vitro functional assay of muscarinic acetylcholine receptor activity (aequorin calcium flux, reversal of EC80 acetylcholine response)). Settings: CHO-K1 cells stably expressing human M1 receptor with aequorin; acetylcholine at EC80; calcium flux (luminescence); read-out: M1 IC50.
T1 sequence (P11229 1-460): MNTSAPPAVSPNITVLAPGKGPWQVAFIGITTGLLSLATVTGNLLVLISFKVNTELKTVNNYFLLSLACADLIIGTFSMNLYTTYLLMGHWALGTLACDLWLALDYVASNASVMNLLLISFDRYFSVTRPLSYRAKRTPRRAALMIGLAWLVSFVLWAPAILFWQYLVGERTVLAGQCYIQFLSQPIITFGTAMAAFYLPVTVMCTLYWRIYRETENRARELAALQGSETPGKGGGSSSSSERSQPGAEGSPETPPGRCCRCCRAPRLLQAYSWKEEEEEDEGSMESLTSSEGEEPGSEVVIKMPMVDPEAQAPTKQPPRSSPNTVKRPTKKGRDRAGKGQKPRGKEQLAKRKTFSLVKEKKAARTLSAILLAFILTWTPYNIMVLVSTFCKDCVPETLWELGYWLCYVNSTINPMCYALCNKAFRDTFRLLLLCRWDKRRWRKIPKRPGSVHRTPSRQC
Type: cell-based
Method: CHO-K1 cells stably expressing human M1 receptor with aequorin (Perkin Elmer) were grown in F12 media (Gibco) containing 10% FBS (ATCC), 0.4 mg/mL geneticin (Sigma-Aldrich) and 0.25 mg/mL Zeocin (Invitrogen). Cells were grown as per the manufacturer's protocol. For compound testing, cells were grown to confluency and detached gently with Accutase (Sigma-Aldrich) followed by centrifugation for 5 min at 150× g. Cells were then re-suspended in assay buffer (i.e. DMEM/F-12 HEPES without phenol red (Invitrogen) with 0.1% BSA (Sigma-Aldrich)) at a density of 5×10^6 cells/ml. Under sterile conditions, 5 μM coelenterazine (Invitrogen) was added to the cells, mixed, then incubated at room temperature protected from light, with gentle agitation, for 4 h.
Primary compound plates were prepared in 100% DMSO in opaque 96-well plates (VWR) and serially diluted in half log increments. Secondary compound plates were prepared at 3× concentration in assay buffer. Compounds were added to white, clear bottom tissue culture treated 96-well plates (Fisher Scientific). Coelenterazine-loaded cells were then added at 5×10^5 cells/well.
Compounds and cells were incubated at room temperature for 30 min in the dark. Acetylcholine at the EC80 concentration was added and calcium flux measured using a FlexStation 3 (Molecular Devices). Sigmoidal dose-response curves were generated by measuring luminescence over 40 sec and calculating the area under the curve. Dose response curves and IC50 values were generated using Prism (GraphPad). Compounds were tested at a final concentration range of 100 μM to […] in 0.1% DMSO.
With COc1cc(C(F)(F)C2CC2C(=O)N2CC3CCC(C2)N3c2ccc(C#N)cn2)ccn1 (racemic) [Example 166, 6-(3-(2-(difluoro(2-methoxypyridin-4-yl)methyl)cyclopropane-1-carbonyl)-3,8-diazabicyclo[3.2.1]octan-8-yl)nicotinonitrile] the IC50 was 1000 to 10000 nM.
In the case of CC(c1ccc(F)cc1)[S+]([O-])CC(=O)N1CC2CCC(C1)N2c1ccc(C#N)cn1 (racemic) [Example 167, 6-(3-(2-((1-(4-fluorophenyl)ethyl)sulfinyl)acetyl)-3,8-diazabicyclo[3.2.1]octan-8-yl)nicotinonitrile], the IC50 is reported as 100 to 1000 nM.
CC(c1ccccc1)[S+]([O-])CC(=O)N1CC2CCC(C1)N2c1ccc(C#N)cn1 (racemic) [Example 168, 6-(3-(2-((1-phenylethyl)sulfinyl)acetyl)-3,8-diazabicyclo[3.2.1]octan-8-yl)nicotinonitrile] showed an IC50 of 1000 to 10000 nM.
With CC(c1ccccc1)[S+]([O-])CCC(=O)N1CC2CCC(C1)N2c1ccc(C#N)cn1 (racemic) [Example 169, 6-(3-(3-((1-phenylethyl)sulfinyl)propanoyl)-3,8-diazabicyclo[3.2.1]octan-8-yl)nicotinonitrile] the IC50 was 1000 to 10000 nM.
CC(c1ccc(F)cc1)[S+]([O-])CCC(=O)N1CC2CCC(C1)N2c1ccc(C#N)cn1 (racemic) [Example 170, 6-(3-(3-((1-(4-fluorophenyl)ethyl)sulfinyl)propanoyl)-3,8-diazabicyclo[3.2.1]octan-8-yl) nicotinonitrile] was tested, and the IC50 was greater than 1000 nM.
Work on CC(c1ccccc1Br)[S+]([O-])CCC(=O)N1CC2CCC(C1)N2c1ccc(C#N)cn1 (racemic) [Example 171, 6-(3-(3-((1-(2-bromophenyl)ethyl)sulflnyl)propanoyl)-3,8-diazabicyclo[3.2.1]octan-8-yl) nicotinonitrile] yielded an IC50 greater than 1000 nM.
With CC(c1ccccc1)S(=O)(=O)CC(=O)N1CC2CCC(C1)N2c1ccc(C#N)cn1 (racemic) [Example 172, 6-(3-(2-((1-phenylethyl)sulfonyl)acetyl)-3,8-diazabicyclo[3.2.1]octan-8-yl)nicotinonitrile] the IC50 was greater than 1000 nM.
Compound CC(c1ccc(F)cc1)S(=O)(=O)CC(=O)N1CC2CCC(C1)N2c1ccc(C#N)cn1 (racemic) [Example 173, 6-(3-(2-((1-(4-fluorophenyl)ethyl)sulfonyl)acetyl)-3,8-diazabicyclo[3.2.1]octan-8-yl)nicotinonitrile] has an IC50 of 1000 to 10000 nM.
With CC(c1ccccc1)S(=O)(=O)CCC(=O)N1CC2CCC(C1)N2c1ccc(C#N)cn1 (racemic) [Example 174, 6-(3-(3-((1-phenylethyl)sulfonyl)propanoyl)-3,8-diazabicyclo[3.2.1]octan-8-yl)nicotinonitrile] the IC50 was greater than 1000 nM.
CC(c1ccc(F)cc1)S(=O)(=O)CCC(=O)N1CC2CCC(C1)N2c1ccc(C#N)cn1 (racemic) [Example 175, 6-(3-(3-((1-(4-fluorophenyl)ethyl)sulfonyl)propanoyl)-3,8-diazabicyclo[3.2.1]octan-8-yl) nicotinonitrile] showed an IC50 greater than 1000 nM.
Compound CC(c1ccccc1Br)S(=O)(=O)CCC(=O)N1CC2CCC(C1)N2c1ccc(C#N)cn1 (racemic) [Example 176, 6-(3-(3-((1-(2-bromophenyl)ethyl)sulfonyl)propanoyl)-3,8-diazabicyclo[3.2.1]octan-8-yl) nicotinonitrile] has an IC50 of 1000 to 10000 nM.
In the case of N#Cc1ccc(N2C3CCC2CN(C(=O)COC2CCc4ccc(F)cc42)C3)nc1 (racemic) [Example 183, 6-(3-(2-((6-fluoro-2,3-dihydro-1H-inden-1-yl)oxy)acetyl)-3,8-diazabicyclo[3.2.1]octan-8-yl)nicotinonitrile], the IC50 is reported as 10 to 100 nM.
N#Cc1ccc(N2C3CCC2CN(C(=O)COC2CCc4cc(F)ccc42)C3)nc1 (racemic) [Example 184, 6-(3-(2-((5-fluoro-2,3-dihydro-1H-inden-1-yl)oxy)acetyl)-3,8-diazabicyclo[3.2.1]octan-8-yl)nicotinonitrile] gave an IC50 of 10 to 100 nM.
Compound CC(OCC(=O)N1CC2CCC(C1)N2c1ccc(C#N)cn1)c1ccc(C(F)(F)F)nc1 (racemic) [Example 190, 6-(3-(2-(1-(6-(trifluoromethyl)pyridin-3-yl)ethoxy)acetyl)-3,8-diazabicyclo[3.2.1]octan-8-yl)nicotinonitrile] has an IC50 greater than 1000 nM.
With CC(OCC(=O)N1CC2CCC(C1)N2c1ccc(C#N)cn1)c1cccc2ncnn12 (racemic) [Example 191, 6-(3-(2-(1-([1,2,4]triazolo[1,5-a]pyridin-5-yl)ethoxy)acetyl)-3,8-diazabicyclo[3.2.1]octan-8-yl)nicotinonitrile] the IC50 was 10 to 100 nM.
CC(OCC(=O)N1CC2CCC(C1)N2c1ccc(C#N)cn1)c1cccc2ncccc12 (racemic) [Example 192, 6-(3-(2-(1-(quinolin-5-yl)ethoxy)acetyl)-3,8-diazabicyclo[3.2.1]octan-8-yl)nicotinonitrile] was tested, and the IC50 was less than 10 nM.
In the case of CC(OCC(=O)N1CC2CCC(C1)N2c1ccc(C#N)cn1)c1cccc2nccnc12 (racemic) [Example 193, 6-(3-(2-(1-(quinoxalin-5-yl)ethoxy)acetyl)-3,8-diazabicyclo[3.2.1]octan-8-yl)nicotinonitrile], the IC50 is reported as less than 10 nM.
In the case of N#Cc1ccc(N2C3CCC2CN(C(=O)COC(c2ccc(F)c(F)c2)C2CC2)C3)nc1 (racemic) [Example 194, 6-(3-(2-(cyclopropyl(3,4-difluorophenyl)methoxy)acetyl)-3,8-diazabicyclo[3.2.1]octan-8-yl)nicotinonitrile], the IC50 is reported as 100 to 1000 nM.
For N#Cc1ccc(N2C3CCC2CN(C(=O)COC(c2cccc4ncnn24)C2CC2)C3)nc1 (racemic) [Example 195, 6-(3-(2-([1,2,4]triazolo[1,5-a]pyridin-5-yl(cyclopropyl)methoxy)acetyl)-3,8-diazabicyclo[3.2.1]octan-8-yl)nicotinonitrile], the IC50 was 10 to 100 nM.
For CC(OCC(=O)N1CC2CCC(C1)N2c1ccc(C#N)cn1)c1cccn2ncnc12 (racemic) [Example 196, 6-(3-(2-(1-([1,2,4]triazolo[1,5-a]pyridin-8-yl)ethoxy)acetyl)-3,8-diazabicyclo[3.2.1]octan-8-yl)nicotinonitrile], the IC50 was less than 10 nM.
Work on Cc1noc(C)c1C(C)OCC(=O)N1CC2CCC(C1)N2c1ccc(C#N)cn1 (racemic) [Example 197, 6-(3-(2-(1-(3,5-dimethylisoxazol-4-yl)ethoxy)acetyl)-3,8-diazabicyclo[3.2.1]octan-8-yl)nicotinonitrile] yielded an IC50 of less than 10 nM.
With Cc1nn(C)c(C)c1C(C)OCC(=O)N1CC2CCC(C1)N2c1ccc(C#N)cn1 (racemic) [Example 198, 6-(3-(2-(1-(1,3,5-trimethyl-1H-pyrazol-4-yl)ethoxy)acetyl)-3,8-diazabicyclo[3.2.1]octan-8-yl)nicotinonitrile] the IC50 was 10 to 100 nM.
In the case of N#Cc1ccc(N2C3CCC2CN(C(=O)COC(c2cccc4ncccc24)C(F)F)C3)nc1 (racemic) [Example 199, 6-(3-(2-(2,2-difluoro-1-(quinolin-5-yl)ethoxy)acetyl)-3,8-diazabicyclo[3.2.1]octan-8-yl)nicotinonitrile], the IC50 is reported as less than 10 nM.
N#Cc1ccc(N2C3CCC2CN(C(=O)COC(c2ccc(F)cc2)C(F)F)C3)nc1 (racemic) [Example 200, 6-(3-(2-(2,2-difluoro-1-(4-fluorophenyl)ethoxy)acetyl)-3,8-diazabicyclo[3.2.1]octan-8-yl)nicotinonitrile] showed an IC50 of 10 to 100 nM.
N#Cc1ccc(N2C3CCC2CN(C(=O)COC(c2ccc(F)c(F)c2)C(F)F)C3)nc1 (racemic) [Example 201, 6-(3-(2-(1-(3,4-difluorophenyl)-2,2-difluoroethoxy)acetyl)-3,8-diazabicyclo[3.2.1]octan-8-yl)nicotinonitrile] gave an IC50 of 10 to 100 nM.
Work on COc1cncc(C(OCC(=O)N2CC3CCC(C2)N3c2ccc(C#N)cn2)C(F)F)c1 (racemic) [Example 202, 6-(3-(2-(2,2-difluoro-1-(5-methoxypyridin-3-yl)ethoxy)acetyl)-3,8-diazabicyclo[3.2.1]octan-8-yl)nicotinonitrile] yielded an IC50 of less than 10 nM.
For CC(C)(OCC(=O)N1CC2CCC(C1)N2c1ccc(C#N)cn1)c1cccc2ncnn12 (racemic) [Example 203, 6-(3-(2-((2-([1,2,4]triazolo[1,5-a]pyridin-5-yl)propan-2-yl)oxy)acetyl)-3,8-diazabicyclo[3.2.1]octan-8-yl)nicotinonitrile], the IC50 was 100 to 1000 nM.
Work on CC(C)(OCC(=O)N1CC2CCC(C1)N2c1ccc(C#N)cn1)c1cccc2nccn12 (racemic) [Example 204, 6-(3-(2-((2-(imidazo[1,2-a]pyridin-5-yl)propan-2-yl)oxy)acetyl)-3,8-diazabicyclo[3.2.1]octan-8-yl)nicotinonitrile] yielded an IC50 of 100 to 1000 nM.
